In publication PMC8911884, “Discovery of Novel 3,4-Dihydro-2(1H)-Quinolinone Sulfonamide Derivatives as New Tubulin Polymerization Inhibitors with Anti-Cancer Activity” (Molecules, 2022):
“Also recorded” adds a separate entry of the source.

Experiments:
HeLa = assay: MTT antiproliferative assay, HeLa; type: cell-based, human; details: 48 h, mean ± SD
Source text: (§1) The MTT method was used to evaluate the anti-tumor activity and cytotoxic activity of all the synthesized compounds in four tumor cell lines (HeLa, HCT-116, A549 and HepG-2) and normal liver cells (L02). At the same time, the 5-fluorouracil(5-Fu) and CA-4 were used as positive references. […] Unfortunately, our target compound has a similar cytotoxicity to tumor cells and normal cells.
(§2) The HeLa, HCT-116, A549 and HepG-2 cells in the logarithmic growth phase were trypsinized, diluted with 10% DMEM medium and evenly seeded in a 96-well plate with 1 × 10^4 cells per well. We placed the inoculated 96-well plate in an incubator at 37 °C and 5% CO2 for 4 h. After the cells adhered to the wall, we removed the medium. We added 150 μL of medicated medium (1% DMEM) to each well of the experimental group, and the control group was added with an equal volume of solvent, with 3 replicate holes for each concentration. Then, we put it in the incubator and continued to incubate for 48 h. After that, we added MTT reagent in the dark, continued incubating for 4 h, discarded the supernatant, added 150 µL DMSO to each well and shook it for 10 min in the dark to fully dissolved the formazan. The absorbance was read at 492 nm by a microplate reader (ELx 800, BioTek, Highland Park, Winooski, VT, USA).
(§3) The inhibition rate (%) = (1-dosing hole OD value/control hole OD value); we drew a logarithmic curve diagram according to the inhibition rate and the dosing concentration to obtain the half inhibitory concentration.

A549 = assay: MTT antiproliferative assay, A549; type: cell-based, human; details: mean ± SD
Description: The MTT method was used to evaluate the anti-tumor activity and cytotoxic activity of all the synthesized compounds in four tumor cell lines (HeLa, HCT-116, A549 and HepG-2) and normal liver cells (L02).
as §2, §3

HCT116 = assay: MTT antiproliferative assay, HCT116; type: cell-based, human; details: mean ± SD
Source text: as §1, §2, §3

HepG-2 = assay: MTT antiproliferative assay, HepG-2; type: cell-based, human; details: mean ± SD
Source text: as §1, §2, §3

L02 = assay: MTT cytotoxicity assay, normal liver cells L02; type: cell-based; details: mean ± SD
Source text: as §1, §2, §3

[1] = tested on: HeLa, HCT-116, A549 and HepG-2; assay: MTT antiproliferative activity across the four tumor cell lines; type: cell-based, human; details: SAR discussion
Source text: as §1
As shown in, at the beginning, we first synthesized the ortho and meta substituted compounds, D7, D8, D9, D11 and D15. […] Then, we decided to introduce para-substituted benzaldehyde. […] This stimulated our interest, so we continued to introduce -OCH3 substituted at different positions to explore the effect of -OCH3 substituted at different positions on the anti-tumor activity of the compound. […] In short, we obtained a compound named D13 with good anti-tumor activity, and it was worthy of further study.
as §2, §3

tubulin = biological target: T1, tubulin (Sus scrofa, UniProt P02550+P02554); assay: In vitro tubulin polymerization assay (fluorescence kit); type: biochemical; details: area under fluorescence curve, 37 °C, 40 min
T1 construct: purchased Cytoskeleton (Danvers, MA, USA) BK011P
T1 sequence (P02554 whole entry): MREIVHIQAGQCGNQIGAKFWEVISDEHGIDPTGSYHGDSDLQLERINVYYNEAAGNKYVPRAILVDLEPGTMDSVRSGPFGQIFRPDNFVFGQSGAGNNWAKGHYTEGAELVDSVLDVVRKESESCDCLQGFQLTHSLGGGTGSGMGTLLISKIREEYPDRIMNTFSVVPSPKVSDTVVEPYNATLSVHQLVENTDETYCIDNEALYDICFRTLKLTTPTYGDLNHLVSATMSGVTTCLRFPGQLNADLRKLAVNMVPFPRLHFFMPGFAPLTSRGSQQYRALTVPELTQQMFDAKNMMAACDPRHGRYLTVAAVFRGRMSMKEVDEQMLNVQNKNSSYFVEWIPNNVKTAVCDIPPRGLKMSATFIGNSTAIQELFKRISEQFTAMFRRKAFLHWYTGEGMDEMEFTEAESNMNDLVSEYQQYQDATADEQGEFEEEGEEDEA
T1 sequence (P02550 whole entry): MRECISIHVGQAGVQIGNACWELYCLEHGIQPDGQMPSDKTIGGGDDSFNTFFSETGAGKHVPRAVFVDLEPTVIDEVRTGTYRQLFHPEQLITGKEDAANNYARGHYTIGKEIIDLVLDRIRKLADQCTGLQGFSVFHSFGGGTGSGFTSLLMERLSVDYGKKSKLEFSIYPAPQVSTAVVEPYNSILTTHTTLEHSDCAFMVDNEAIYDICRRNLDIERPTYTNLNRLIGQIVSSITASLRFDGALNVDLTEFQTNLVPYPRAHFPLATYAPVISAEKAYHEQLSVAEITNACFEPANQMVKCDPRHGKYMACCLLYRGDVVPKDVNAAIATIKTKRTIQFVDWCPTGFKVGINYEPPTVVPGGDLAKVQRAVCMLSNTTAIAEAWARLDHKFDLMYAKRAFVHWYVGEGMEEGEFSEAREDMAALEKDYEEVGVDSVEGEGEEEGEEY

| IC50 (HeLa; Homo sapiens, HeLa) | IC50 (A549; Homo sapiens, A549, 48 h) | IC50 (HCT116; Homo sapiens, HCT-116, 48 h) | melting point | IC50 (HeLa) | IC50 (tubulin) | IC50 (A549; 48 h) | IC50 (HCT116; 48 h) | Compound | IC50 (HepG-2; Homo sapiens, HepG2, 48 h) | IC50 (L02; Homo sapiens, L02, 48 h) | antiproliferative activity (in words) [1] | IC50 (HepG-2; 48 h) | IC50 (L02; 48 h) |
| --- | --- | --- | --- | --- | --- | --- | --- | --- | --- | --- | --- | --- | --- |
| 29.6 ± 3.21 µM | – | 11.7 ± 2.37 µM | – | – | – | – | – | O=c1[nH]cc(F)c(=O)[nH]1 [Compound 5-Fu, 5-fluorouracil, reference compound] | 18.3 ± 0.76 µM | 20 ± 1.25 µM | – | – | – |
| 7.54 ± 1.48 µM | 18.2 ± 4.11 µM | 3.87 ± 0.12 µM | 108 to 110 °C | – | – | – | – | COc1cc(N(Cc2ccc(F)cc2)S(=O)(=O)c2ccc3c(c2)CCC(=O)N3)cc(OC)c1OC [Compound D3, N-(4-fluorobenzyl)-2-oxo-N-(3,4,5-trimethoxyphenyl)-1,2,3,4-tetrahydroquinoline-6-sulfonamide] | 6.31 ± 1.21 µM | 5.31 ± 1.08 µM | strong anti-proliferative activity | – | – |
| 9.67 ± 2.1 µM | 8.49 ± 1.77 µM | 4.21 ± 0.5 µM | 119 to 121 °C | – | – | – | – | COc1cc(N(Cc2ccc(Cl)cc2)S(=O)(=O)c2ccc3c(c2)CCC(=O)N3)cc(OC)c1OC [Compound D4, N-(4-chlorobenzyl)-2-oxo-N-(3,4,5-trimethoxyphenyl)-1,2,3,4-tetrahydroquinoline-6-sulfonamide] | 4.12 ± 0.55 µM | 6.35 ± 2.03 µM | strong anti-proliferative activity | – | – |
| 1.34 ± 0.3 µM | 2.96 ± 0.13 µM | 1.13 ± 0.01 µM | 128 to 130 °C | – | – | – | – | COc1cc(N(Cc2ccc(C)cc2)S(=O)(=O)c2ccc3c(c2)CCC(=O)N3)cc(OC)c1OC [Compound D5, N-(4-methylbenzyl)-2-oxo-N-(3,4,5-trimethoxyphenyl)-1,2,3,4-tetrahydroquinoline-6-sulfonamide] | 2.36 ± 0.11 µM | 3.05 ± 0.19 µM | strong anti-proliferative activity | – | – |
| 3.63 ± 0.98 µM | 2.42 ± 0.46 µM | 2.05 ± 0.11 µM | 127 to 129 °C | – | – | – | – | COc1cc(N(Cc2ccc(N(C)C)cc2)S(=O)(=O)c2ccc3c(c2)CCC(=O)N3)cc(OC)c1OC [Compound D6, N-(4-(dimethylamino)benzyl)-2-oxo-N-(3,4,5-trimethoxyphenyl)-1,2,3,4-tetrahydroquinoline-6-sulfonamide] | 4.74 ± 1.56 µM | 5.31 ± 1.02 µM | strong anti-proliferative activity | – | – |
| 36.5 ± 3.59 µM | 35 ± 6.74 µM | 28.2 ± 4.26 µM | 120 to 122 °C | – | – | – | – | COc1cc(N(Cc2cccc(C)c2)S(=O)(=O)c2ccc3c(c2)CCC(=O)N3)cc(OC)c1OC [Compound D7, N-(3-methylbenzyl)-2-oxo-N-(3,4,5-trimethoxyphenyl)-1,2,3,4-tetrahydroquinoline-6-sulfonamide] | 44.3 ± 4.31 µM | 30.2 ± 2.56 µM | poor antiproliferative activity | – | – |
| 21.6 ± 3.56 µM | > 100 µM | 17.5 ± 1.33 µM | 138 to 140 °C | – | – | – | – | COc1cc(N(Cc2ccccc2F)S(=O)(=O)c2ccc3c(c2)CCC(=O)N3)cc(OC)c1OC [Compound D8, N-(2-fluorobenzyl)-2-oxo-N-(3,4,5-trimethoxyphenyl)-1,2,3,4-tetrahydroquinoline-6-sulfonamide] | 50.9 ± 6.77 µM | 60.2 ± 4.21 µM | poor antiproliferative activity | – | – |
| 16.9 ± 4.11 µM | 31.7 ± 4.55 µM | 12.2 ± 2.89 µM | 117 to 119 °C | – | – | – | – | COc1cc(N(Cc2ccccc2Cl)S(=O)(=O)c2ccc3c(c2)CCC(=O)N3)cc(OC)c1OC [Compound D9, N-(2-chlorobenzyl)-2-oxo-N-(3,4,5-trimethoxyphenyl)-1,2,3,4-tetrahydroquinoline-6-sulfonamide] | 27.5 ± 3.28 µM | 36.2 ± 4.21 µM | poor antiproliferative activity | – | – |
| 75.3 ± 10.3 µM | > 100 µM | 51.2 ± 13.5 µM | 123 to 125 °C | – | – | – | – | COc1cc(N(Cc2ccc(Cl)c(Cl)c2)S(=O)(=O)c2ccc3c(c2)CCC(=O)N3)cc(OC)c1OC [Compound D10, N-(3,4-dichlorobenzyl)-2-oxo-N-(3,4,5-trimethoxyphenyl)-1,2,3,4-tetrahydroquinoline-6-sulfonamide] | – | 48.3 ± 6.64 µM | – | – | – |
| 54.6 ± 8.15 µM | – | 48.2 ± 7.46 µM | 121 to 123 °C | – | – | – | – | COc1cccc(CN(c2cc(OC)c(OC)c(OC)c2)S(=O)(=O)c2ccc3c(c2)CCC(=O)N3)c1 [Compound D12, N-(3-methoxybenzyl)-2-oxo-N-(3,4,5-trimethoxyphenyl)-1,2,3,4-tetrahydroquinoline-6-sulfonamide] | 64.1 ± 7.56 µM | 56.3 ± 2.15 µM | poor antiproliferative activity | – | – |
| 1.34 µM | 1.57 ± 0.25 µM | 0.94 ± 0.31 µM | 122 to 124 °C | 1.46 ± 0.11 µM | 6.74 µM | – | – | COc1ccc(CN(c2cc(OC)c(OC)c(OC)c2)S(=O)(=O)c2ccc3c(c2)CCC(=O)N3)cc1 [Compound D13, N-(4-methoxybenzyl)-2-oxo-N-(3,4,5-trimethoxyphenyl)-1,2,3,4-tetrahydroquinoline-6-sulfonamide] | 1.82 ± 0.97 µM | 3.61 ± 1.02 µM | strongest anti-proliferative activity; also recorded: strong anti-proliferative activity | – | – |
| > 100 µM | 49.3 ± 12.5 µM | 87.8 ± 15.2 µM | 116 to 118 °C | – | – | – | – | COc1ccc(CN(c2cc(OC)c(OC)c(OC)c2)S(=O)(=O)c2ccc3c(c2)CCC(=O)N3)cc1OC [Compound D14, N-(3,4-dimethoxybenzyl)-2-oxo-N-(3,4,5-trimethoxyphenyl)-1,2,3,4-tetrahydroquinoline-6-sulfonamide] | – | 66.5 ± 7.81 µM | poor antiproliferative activity | – | – |
| 86.4 ± 14.2 µM | – | > 100 µM | 127 to 129 °C | – | – | – | – | COc1ccc(OC)c(CN(c2cc(OC)c(OC)c(OC)c2)S(=O)(=O)c2ccc3c(c2)CCC(=O)N3)c1 [Compound D15] | 75.4 ± 15.4 µM | > 100 µM | poor antiproliferative activity | – | – |
| 4.91 ± 0.76 µM | 7.34 ± 1.44 µM | 2.08 ± 0.24 µM | 131 to 133 °C | – | – | – | – | COc1cc(CN(c2cc(OC)c(OC)c(OC)c2)S(=O)(=O)c2ccc3c(c2)CCC(=O)N3)cc(OC)c1OC [Compound D16, 2-oxo-N-(3,4,5-trimethoxybenzyl)-N-(3,4,5-trimethoxyphenyl)-1,2,3,4-tetrahydroquinoline-6-sulfonamide] | 5.48 ± 1.23 µM | 4.25 ± 0.87 µM | – | – | – |
| – | – | – | – | 13.5 ± 2.15 µM | – | 14.2 ± 1.26 µM | 25.9 ± 0.98 µM | N-benzyl-2-oxo-N-(3,4,5-trimethoxyphenyl)-1,2,3,4-tetrahydroquinoline-7-sulfonamide [Compound D1] | – | – | strong anti-proliferative activity | 9.87 ± 2.49 µM | 20.7 ± 3.12 µM |

| Compound | IC50 (HeLa; Homo sapiens, HeLa) | IC50 (A549; Homo sapiens, A549, 48 h) | IC50 (HCT116; Homo sapiens, HCT-116, 48 h) | melting point | IC50 (HeLa) | IC50 (tubulin) | IC50 (A549; 48 h) | IC50 (HCT116; 48 h) | IC50 (HepG-2; Homo sapiens, HepG2, 48 h) | IC50 (L02; Homo sapiens, L02, 48 h) | antiproliferative activity (in words) [1] | IC50 (HepG-2; 48 h) | IC50 (L02; 48 h) |
| --- | --- | --- | --- | --- | --- | --- | --- | --- | --- | --- | --- | --- | --- |
| COc1ccc(/C=C\c2cc(OC)c(OC)c(OC)c2)cc1O [CA-4, Combretastatin A-4, reference compound] | 0.02 ± 0.001 µM | 0.12 ± 0.023 µM | 0.04 ± 0.016 µM | – | – | – | – | – | 0.05 ± 0.021 µM | 0.15 ± 0.05 µM | – | – | – |
